Source: US10414774B2, “Compound useful for altering the levels of bile acids for the treatment of diabetes and cardiometabolc disease” (Merck Sharp & Dohme Corp., priority 2016, dated 2019)

Target: T1, Human CYP8B1 (Homo sapiens, UniProt Q9UNU6)
T1 sequence (Q9UNU6 1-501): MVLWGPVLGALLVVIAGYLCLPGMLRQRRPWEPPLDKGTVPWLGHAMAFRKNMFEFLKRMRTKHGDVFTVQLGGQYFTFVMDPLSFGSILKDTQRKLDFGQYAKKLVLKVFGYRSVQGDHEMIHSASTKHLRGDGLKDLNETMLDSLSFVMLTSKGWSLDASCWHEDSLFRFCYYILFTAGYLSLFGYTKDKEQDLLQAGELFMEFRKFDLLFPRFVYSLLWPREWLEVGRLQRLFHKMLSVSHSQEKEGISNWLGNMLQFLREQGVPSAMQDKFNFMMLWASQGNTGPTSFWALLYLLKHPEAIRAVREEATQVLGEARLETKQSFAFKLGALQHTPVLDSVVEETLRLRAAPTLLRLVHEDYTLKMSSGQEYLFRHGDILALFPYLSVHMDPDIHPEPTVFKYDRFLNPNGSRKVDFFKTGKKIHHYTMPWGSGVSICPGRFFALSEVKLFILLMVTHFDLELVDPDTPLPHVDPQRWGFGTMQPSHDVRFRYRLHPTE
Assay: Human CYP8B1 Liver Microsome Assay
Settings: Human CYP8B1 IC50, human liver microsomes; substrate 7a-hydroxy-4-cholesten-3-one, NADPH; RapidFire MS detection of 7α,12α-dihydroxy-4-cholesten-3-one
Experimental: To a 384 well polypropylene plate (Corning 3656), 250 nl of inhibitor in 100% DMSO (1.25% final DMSO concentration) was pre-plated using an Echo liquid handler (Labcyte Inc.). Human liver microsomes (Xenotech) were diluted in of 0.1 M phosphate buffer, pH 7.4, at a concentration of 65 μg/ml and 15 μL was added to the 384 well plate. The plates were incubated at ambient room temperature for 30 minutes. After pre-incubation with inhibitor, the reaction was initiated by adding 5 μl of substrate solution (4.0 μM 7a-hydroxy-4-cholesten-3-one (Toronto Research Chemicals), 2 mM of NADPH (Sigma), 0.1 M phosphate buffer (pH 7.4). The reaction was carried out for 45 minutes at ambient room temperature and was quenched by the addition of 50 μl of acetonitrile+0.1% vol/vol formic acid (FA)+300 nM 7α-hydroxy-4-cholesten-3-one-d7 (Toronto Research Chemicals). The plates were sealed and centrifuged at 3000 rpm for 5 minutes. Plates were loaded onto the Agilent RapidFire RF300 HTMS system, wherein samples were sipped for 600 ms, and the sip sensor detection signals the diversion of sample from the loop onto a C4 solid phase extraction (SPE) cartridge, where salts are washed off for 2500 ms with a mobile phase of water with 0.1% vol/vol FA at a flow rate of 1.5 ml/min. The column path was switched, and the sample was eluted off the cartridge and flowed into the mass spectrometer for 3000 ms with a mobile phase of acetonitrile and 0.1% vol/vol FA at a flow rate of 1.25 ml/min. The aspirator tip was washed separately with water and acetonitrile between sample aspirations (each for 600 ms) to minimize carryover contamination. Mass spectrometry was carried out using a Sciex API4000 triple quadrupole mass spectrometer (Applied Biosystems, Concord, ON, Canada) equipped with electrospray ionization (ESI) operated in the positive-ion mode. The product 7α,12α-dihydroxy-4-cholesten-3-one and internal standard 7α-hydroxy-4-cholsten-3-one-d7 were detected using multiple reaction monitoring (MRM) with Q1/Q3 transitions at m/z 417.3 to 381.3 and m/z 408.3 to 390.3, respectively, with a dwell time of 100 ms and a collision energy of 24 V for each transition. The mass spectrometer used an ESI voltage of 5000 V and a source temperature of 650° C. Extracted ion chromatograms for each transition were integrated and processed using the RapidFire Integrator software. The data for each well were normalized by monitoring product conversion with the ratio of AUCproduct/(AUCinternal standard). The data was then fitted to a four parameter logistic fit using ActivityBase Software to calculate an IC50 of the inhibitor.

In the case of `CO[C@H]1CN(c2c(C#N)cnc3ccc(Cl)cc23)CC[C@H]1C(=O)N1CCn2c(nnc2C(F)(F)F)C1` [Example 72c, 6-chloro-4-[(3R,4R)-3-methoxy-4-{[3-(trifluoromethyl)-5,6-dihydro[1,2,4]triazolo[4,3-a]pyrazin-7(8H)-yl]carbonyl}piperidin-1-yl]quinoline-3-carbonitrile], the IC50 is reported as 2210 nM.
Molecule `CC[C@H]1CN(c2c(C#N)cnc3c(F)c(OC)ccc23)CC[C@H]1C(=O)N1CCn2c(nnc2C(F)(F)F)C1` [Example 74a, 4-[(3R,4R)-3-ethyl-4-{[3-(trifluoromethyl)-5,6-dihydro[1,2,4]triazolo[4,3-a]pyrazin-7(8H)-yl]carbonyl}piperidin-1-yl]-8-fluoro-7-methoxyquinoline-3-carbonitrile] has an IC50 of 343 nM.
In the case of `CC[C@@H]1CN(c2c(C#N)cnc3c(F)c(OC)ccc23)CC[C@@H]1C(=O)N1CCn2c(nnc2C(F)(F)F)C1` [Example 74b, 4-[(3S,4S)-3-ethyl-4-{[3-(trifluoromethyl)-5,6-dihydro[1,2,4]triazolo[4,3-a]pyrazin-7(8H)-yl]carbonyl}piperidin-1-yl]-8-fluoro-7-methoxyquinoline-3-carbonitrile], the IC50 is reported as 2.1 nM.
Work on `CC[C@H]1CN(c2c(C#N)cnc3ccc(Cl)cc23)CC[C@H]1C(=O)N1CCn2c(nnc2C(F)(F)F)C1` [Example 75a, 6-chloro-4-[(3R,4R)-3-ethyl-4-{[3-(trifluoromethyl)-5,6-dihydro[1,2,4]triazolo[4,3-a]pyrazin-7(8H)-yl]carbonyl}piperidin-1-yl]quinoline-3-carbonitrile] yielded an IC50 of 307 nM.
`CC[C@@H]1CN(c2c(C#N)cnc3ccc(Cl)cc23)CC[C@@H]1C(=O)N1CCn2c(nnc2C(F)(F)F)C1` [Example 75b, 6-chloro-4-[(3S,4S)-3-ethyl-4-{[3-(trifluoromethyl)-5,6-dihydro[1,2,4]triazolo[4,3-a]pyrazin-7(8H)-yl]carbonyl}piperidin-1-yl]quinoline-3-carbonitrile] showed an IC50 of 2.8 nM.
With `N#Cc1cnc2ccc(Cl)cc2c1N1CC[C@@H](C(=O)N2CCn3c(nnc3C(F)(F)F)C2)[C@@H](C2CC2)C1` [Example 76a, 6-chloro-4-[(3R,4R)-3-cyclopropyl-4-{[3-(trifluoromethyl)-5,6-dihydro[1,2,4]triazolo[4,3-a]pyrazin-7(8H)-yl]carbonyl}piperidin-1-yl]quinoline-3-carbonitrile] the IC50 was 1320 nM.
`N#Cc1cnc2ccc(Cl)cc2c1N1CC[C@H](C(=O)N2CCn3c(nnc3C(F)(F)F)C2)[C@H](C2CC2)C1` [Example 76c, 6-chloro-4-[(3S,4S)-3-cyclopropyl-4-{[3-(trifluoromethyl)-5,6-dihydro[1,2,4]triazolo[4,3-a]pyrazin-7(8H)-yl]carbonyl}piperidin-1-yl]quinoline-3-carbonitrile] was tested, and the IC50 was 0.29 nM.
`COc1ccc2c(N3CC[C@@H](C(=O)N4CCn5c(nnc5C(F)(F)F)C4)[C@@H](C4CC4)C3)c(C#N)cnc2c1F` [Example 77a, 4-[(3R,4R)-3-cyclopropyl-4-{[3-(trifluoromethyl)-5,6-dihydro[1,2,4]triazolo[4,3-a]pyrazin-7(8H)-yl]carbonyl}piperidin-1-yl]-8-fluoro-7-methoxyquinoline-3-carbonitrile] was tested, and the IC50 was 231 nM.
Work on `COc1ccc2c(N3CC[C@H](C(=O)N4CCn5c(nnc5C(F)(F)F)C4)[C@H](C4CC4)C3)c(C#N)cnc2c1F` [Example 77b, 4-[(3S,4S)-3-cyclopropyl-4-{[3-(trifluoromethyl)-5,6-dihydro[1,2,4]triazolo[4,3-a]pyrazin-7(8H)-yl]carbonyl}piperidin-1-yl]-8-fluoro-7-methoxyquinoline-3-carbonitrile] yielded an IC50 of 1.8 nM.
With `C[C@@H]1CN(c2c(C#N)cnc3cc(C(C)(F)F)ccc23)CC[C@@H]1C(=O)N1CCn2c(nnc2C(F)(F)F)C1` [Example 78, 7-(1,1-difluoroethyl)-4-[(3S,4S)-3-methyl-4-{[3-(trifluoromethyl)-5,6-dihydro[1,2,4]triazolo[4,3-a]pyrazin-7(8H)-yl]carbonyl}piperidin-1-yl]quinoline-3-carbonitrile] the IC50 was 1 nM.
`C[C@@H]1CN(c2c(C#N)cnc3ccccc23)CC[C@@H]1C(=O)N1CCn2c(nnc2C(F)(F)F)C1` [Example 79, 4-[(3S,4S)-3-methyl-4-{[3-(trifluoromethyl)-5,6-dihydro[1,2,4]triazolo[4,3-a]pyrazin-7(8H)-yl]carbonyl}piperidin-1-yl]quinoline-3-carbonitrile] gave an IC50 of 1.6 nM.
Molecule `[2H]C([2H])([2H])Oc1ccc2c(N3CC[C@H](C(=O)N4CCn5c(nnc5C(F)(F)F)C4)[C@H](C)C3)c(C#N)cnc2c1` [Example 80, 7-[(^2H3)methyloxy]-4-[(3S,4S)-3-methyl-4-{[3-(trifluoromethyl)-5,6-dihydro[1,2,4]triazolo[4,3-a]pyrazin-7(8H)-yl]carbonyl}piperidin-1-yl]quinoline-3-carbonitrile] has an IC50 of 0.35 nM.
`COc1ccc2c(N3CC[C@H](C(=O)N4Cc5nnc(C(F)(F)F)n5C(C)(C)C4)[C@H](C)C3)c(C#N)cnc2c1F` [Example 82, 4-((3S,4S)-4-(5,5-dimethyl-3-(trifluoromethyl)-5,6,7,8-tetrahydro-[1,2,4]triazolo[4,3-a]pyrazine-7-carbonyl)-3-methylpiperidin-1-yl)-8-fluoro-7-methoxyquinoline-3-carbonitrile] was tested, and the IC50 was 58 nM.
With `COc1ccc2c(N3C[C@@H](C)N(C(=O)N4CCn5c(nnc5C(F)(F)F)C4)[C@H](C)C3)c(C#N)cnc2c1` [Example 83a, 4-((3R,5R)-3,5-dimethyl-4-(3-(trifluoromethyl)-5,6,7,8-tetrahydro-[1,2,4]triazolo[4,3-a]pyrazine-7-carbonyl)piperazin-1-yl)-7-methoxyquinoline-3-carbonitrile] the IC50 was 11.3 nM.
With `COc1ccc2c(N3C[C@@H](C)N(C(=O)N4CCn5c(nnc5C(F)(F)F)C4)[C@@H](C)C3)c(C#N)cnc2c1` [Example 83b, 4-((3S,5R)-3,5-dimethyl-4-(3-(trifluoromethyl)-5,6,7,8-tetrahydro-[1,2,4]triazolo[4,3-a]pyrazine-7-carbonyl)piperazin-1-yl)-7-methoxyquinoline-3-carbonitrile] the IC50 was 987 nM.
In the case of `COc1ccc2c(N3CCC(C(=O)N4CCn5c(C)nnc5C4)C(C)C3)c(C#N)cnc2c1` (centres unmarked) [Example 84, 7-methoxy-4-{3-methyl-4-[(3-methyl-5,6-dihydro[1,2,4]triazolo[4,3-a]pyrazin-7(8H)-yl)carbonyl]piperidin-1-yl}quinoline-3-carbonitrile], the IC50 is reported as 3.3 nM.
`C[C@@H]1CN(c2c(C#N)cnc3c2CCN(C(=O)OC2(C)CC2)C3)CC[C@@H]1C(=O)N1CCn2c(nnc2C2CC2)C1` [Example 85, 1-methylcyclopropyl 3-cyano-4-((3S,4S)-4-(3-cyclopropyl-5,6,7,8-tetrahydro-[1,2,4]triazolo[4,3-a]pyrazine-7-carbonyl)-3-methylpiperidin-1-yl)-5,6-dihydro-1,7-naphthyridine-7(8H)-carboxylate] showed an IC50 of 2 nM.
`C[C@@H]1CN(c2c(C#N)cnc3c(F)cc(C4CC4)cc23)CC[C@@H]1C(=O)N1CCn2c(nnc2C(F)(F)F)C1` [Example 86, 6-cyclopropyl-8-fluoro-4-((3S,4S)-3-methyl-4-(3-(trifluoromethyl)-5,6,7,8-tetrahydro-[1,2,4]triazolo[4,3-a]pyrazine-7-carbonyl)piperidin-1-yl)quinoline-3-carbonitrile] showed an IC50 of 0.4 nM.
With `C[C@@H]1CN(c2c(C#N)cnc3c(F)cc(C4CCC4)cc23)CC[C@@H]1C(=O)N1CCn2c(nnc2C(F)(F)F)C1` [Example 87, 6-cyclobutyl-8-fluoro-4-((3S,4S)-3-methyl-4-(3-(trifluoromethyl)-5,6,7,8-tetrahydro-[1,2,4]triazolo[4,3-a]pyrazine-7-carbonyl)piperidin-1-yl) quinoline-3-carbonitrile] the IC50 was 0.3 nM.
`C[C@@H]1CN(c2c(C#N)cnc3c(F)cc(C(F)F)cc23)CC[C@@H]1C(=O)N1CCn2c(nnc2C(F)(F)F)C1` [Example 88, 6-(difluoromethyl)-8-fluoro-4-((3S,4S)-3-methyl-4-(3-(trifluoromethyl)-5,6,7,8-tetrahydro-[1,2,4]triazolo[4,3-a]pyrazine-7-carbonyl)piperidin-1-yl)quinoline-3-carbonitrile] was tested, and the IC50 was 0.7 nM.
Work on `C[C@@H]1CN(c2c(C#N)cnc3cc(-c4ncco4)ccc23)CC[C@@H]1C(=O)N1CCn2c(nnc2C(F)(F)F)C1` [Example 89, 4-((3S,4S)-3-methyl-4-(3-(trifluoromethyl)-5,6,7,8-tetrahydro-[1,2,4]triazolo[4,3-a]pyrazine-7-carbonyl)piperidin-1-yl)-7-(oxazol-2-yl)quinoline-3-carbonitrile] yielded an IC50 of 0.4 nM.
Work on `C[C@@H]1CN(c2c(C#N)cnc3cc(-c4ccccc4)ccc23)CC[C@@H]1C(=O)N1CCn2c(nnc2C(F)(F)F)C1` [Example 90, 4-((3S,4S)-3-methyl-4-(3-(trifluoromethyl)-5,6,7,8-tetrahydro-[1,2,4]triazolo[4,3-a]pyrazine-7-carbonyl)piperidin-1-yl)-7-phenylquinoline-3-carbonitrile] yielded an IC50 of 0.2 nM.
`Cc1nc2ccc(Cl)cc2c(N2CC[C@H](C(=O)N3CCn4cccc4C3)[C@H](C)C2)c1C#N` [Example 91, 6-chloro-4-[(3S,4S)-4-(3,4-dihydropyrrolo[1,2-a]pyrazin-2(1H)-ylcarbonyl)-3-methylpiperidin-1-yl]-2-methylquinoline-3-carbonitrile] gave an IC50 of 5.8 nM.
